Measurements as given in US20220322719A1, “INTESTINAL HEALTH PROMOTING COMPOSITIONS” (NSE Products, Inc., priority 2016, published 2022).

Legend:
Caco-2 cell monolayers = experiment: TNFα-induced decrease of transepithelial electrical resistance (TEER) in Caco-2 monolayers; format: cell-based; settings: FIGS. 17-20
[1] = 500 mg isotopically labeled, single dose, male subjects (n=8); cited from earlier work

Compound | TNFα induced losses of intestinal barrier integrity (TEER) (Caco-2 cell monolayers) | adverse effects [1] | time metabolites were present in the circulation [1]
Oc1cc(O)c2c(c1)OC(c1ccc(O)c(O)c1)C(O)C2 (stereo not drawn) [catechins, catechin] | prevents TNFα induced losses of intestinal barrier integrity | – | –
OC[C@H]1O[C@@H](Oc2cc3c(O)cc(O)cc3[o+]c2-c2ccc(O)c(O)c2)[C@H](O)[C@@H](O)[C@@H]1O [cyanidin-3-glucoside] | – | no adverse effects | less than or equal to 48 hours
